This is an account of results in patent US20180348222A1, “BUFADIENOLIDE FOR TREATMENT OF NON-SMALL CELL LUNG CANCER” (priority 2017, published 2018).

In series [1] the test system is A549 and H1975 cells. Nature of the series: Apoptosis assay, co-treatment with Proscillaridin A. Format: cell-based. As to the method: (§1) A549, H1975 and HCC827 cells (1×10^5 cells /well) were seeded in a 6 -well plate for 24 h, and treated with the indicated concentrations of Proscillaridin A for an additional 24 h at 37° C. After indicated hours, the cells were washed by ice-cold 1×PBS once and harvested by trypsination. Then cell were centrifuged, collected and resuspended in ice-cold 1×PBS. After removing the supernatants, cell pellets were re-suspended in 100 μL 1× Annexin-binding buffer. The cells were then double-stained with Annexin-V FITC and PI (100 μg/mL) of 2 μL respectively for 15 min at room temperature in dark. After that, 300 μL 1× Annexin-binding buffer was added. Apoptotic cells were quantitatively counted by a BD Aria III Flow Cytometer (BD Biosciences, San Jose, Calif., USA).

The subject of series [2] is A549 cells. Nature of the series: MTT cytotoxicity assay. Format: cell-based. The conditions noted are these: A549, EGFR wild type, 24 h. Here is the method: (§2) Cells were seeded in a 96-well microplate with 3000-5000 cells/well confluence, and put into the incubator overnight for cells adhesion. Different concentrations of drug Proscillaridin A were added with Dimethyl sulfoxide (DMSO) as vehicle control. The microplates were incubated for further 24 h. Each dosage was repeated in triplicate. 10 μL of MTT (5 mg/mL) solution was added to each well. The plate was placed back into the incubator for 4 h. After that, 100 μL of resolved solution (10% SDS and 0.1 mM HCL) was added to each well.
(§3) Before dissolving the formazan crystals, the microplate was put back into the incubator for another 4 h. The absorbance of the plate was measured at 570 nm with reference 650 nm by a microplate reader (Tecan, Morrisville, N.C., USA). Cell viability was calculated by percentages of the absorbance of the treatment group divided by the absorbance of untreated group. At least three independent experiments were performed for data analysis and presentation.

Series [3] deals with CCD19-LU normal lung fibroblast cell line. Kind of series: MTT cytotoxicity assay. In kind it is cell-based. As to the method:
as §2, §3
For orientation: Formazan colour is commonly taken as a measure of viable cells.

Series [4] relates to H1975 cells. Nature of the series: MTT cytotoxicity assay. Format: cell-based. Particulars: H1975, EGFR double mutant, 24 h. Here is the method: as §2, §3
The subject of another series is H2228 cells. Nature of the series: MTT cytotoxicity assay. Format: cell-based. The conditions noted are these: H2228, EML4-ALK, 24 h. Here is the method: as §2, §3
In another series the test system is H358 cells. Nature of the series: MTT cytotoxicity assay. The conditions noted are these: H358, KRAS, 24 h. Format: cell-based. Here is the method: as §2, §3
The subject of another series is HCC78 cells. Nature of the series: MTT cytotoxicity assay. Format: cell-based. Particulars: HCC78, SLC3482-ROS, 24 h. Here is the method:
as §2, §3

In series [5] the test system is HCC827 cells. Kind of series: MTT cytotoxicity assay. In kind it is cell-based. Particulars: HCC827, EGFR exon 19 deletion, 24 h. As to the method:
as §2, §3

In a further series the target is Na^+/K^+ ATPase. Kind of series: Na^+/K^+ ATPase enzyme activity assay. In kind it is biochemical. Particulars: in vitro, enzyme from porcine cerebral cortex. As to the method: The enzymatic activity of Na^+/K^+ ATPase (purchased from Sigma as lyophilized powder from porcine cerebral cortex) was measured by colorimetric quantification of P, released during ATP hydrolysis. A previously published procedure was adapted with some modifications. Begin with incubating 10 μl of Na^+/K^+ ATPase (600 units/m1) with 2.5 μl of KCl/NaCl solution (45 mM KCl and 2 M NaCl) at 37° C. for 30 min with either 5 μl of DMSO (control) or 5 μl of P.A (in different indicated concentrations) in 67.5 μl of buffer (24 mM Tric HCl buffer with 0.68 mM ethylenediaminetetraacetic acid and 6.0 mM magnesium chloride, pH 7.8). ATP (5 μl of 80 mM solution) was then added, and the reaction mixture was incubated again at 37° C. for 15 min. Trichloroacetic acid (30 μl of 100% w/v) was then added to the reaction mixture followed by centrifugation for 5 min. Supernatant (50 μl aliquot) was transferred to a 96 well plated containing 100 μl of Taussky-Shorr reagent. The absorbance at 660 nm was read after incubation at RT for 5 min.

Series [6] concerns A549 cells. Kind of series: Apoptosis assay (Annexin-V/PI flow cytometry). In kind it is cell-based. As to the method: as §1
In general terms: In flow cytometry, cells or beads pass a laser one at a time.

In series [7] the test system is H1975 cells. Kind of series: Apoptosis assay (Annexin-V/PI flow cytometry). In kind it is cell-based. As to the method: as §1
The test system of series [8] is HCC827 cells. Kind of series: Apoptosis assay (Annexin-V/PI flow cytometry). In kind it is cell-based. The conditions noted are these: HCC827, 50 nM, 24 h. As to the method: as §1
Series [9] has as its system EGFR phosphorylation of tyrosine residue 1173 in H1975. Nature of the series: Western blot of EGFR activation. In kind it is cell-based. The conditions noted are these: H1975, 18 hours. As to the method: (§4) After incubation A549, H1975 and HCC827 cells with Proscillaridin A for 18 hours, cells were harvested and washed with cold 1× PBS. Then, cells were lysed with ice-cold RIPA lysis buffer with protease and phosphatase inhibitors added to extract the cell protein extraction. The supernatants were collected by centrifugation at 12,000 g, for 5 min. The quantitation of total protein extraction was measured by Bio-Rad DCTM protein assay kit (Bio-Rad, Philadelphia, Pa., USA). Then 35 μg of protein were loaded and electrophoretically separated on 8% SDS-PAGE gel and then transferred to Nitrocellulose (NC) membrane.
(§5) Membranes were blocked with 5% non-fat milk and […] containing 0.1% Tween-20 (TBST) for 1 h at room temperature. After 1 h, membranes were incubated with primary antibodies (1:1000 dilution) against β-actin, GAPDH, total/phosphor-EGFR, total/phosphor-AKT, total/phosphor-JNK, total/phosphor-AMPK, total/phosphor-ACC, phosphor-mTOR, IKK-α, Iκ-Bα, phosphor-NFκB-P65, Caspase-9, Caspase-7, BAX and Bcl-2 at 4° C. with gently shaking overnight. Membranes were washed with TBST for 3 times (5 min/time), and incubated with secondary fluorescent antibody (1:10000 dilutions) for 1 h at room temperature. Rewashing with TBST for 3 times (15 min/time), the stripes were visualized by LI-COR Odessy scanner (Belfast, Me., USA).
On the technique in general: A western blot detects proteins with antibodies after separation by electrophoresis.

Series [10] concerns EGFR phosphorylation of tyrosine residue 1173 in HCC827. Nature of the series: Western blot of EGFR activation. Format: cell-based. Particulars: HCC827, 18 hours. As to the method:
as §4, §5

Series [11] has as its system A549, H1975 and HCC827 cells. Kind of series: Colony-formation assay. In kind it is cell-based. The conditions noted are these: all three cell lines. Here is the method:
Colony-forming assay was performed as previously described. Briefly, About 300 cells were plated into every well of 6 -well plate with 2 ml of culture medium and grown at 37° C. with 5% CO2. After 48 h culture for cell adherence to the plate, rinsed with fresh medium, Proscillaridin A (with indicated different dosages) was added to the medium. 48 h later, the cells were washed twice with PBS and then incubated in drug-free medium. The medium was changed every 5 days. After culturing for additional 10 to 14 days, the medium was discarded and each dish was washed twice with PBS carefully. The cells were fixed with 3.7% Paraformaldehyde for 20 min and 0.2% crystal violet solution in 10% ethanol for 10 min. Excess stain was removed by washing repeatedly with PBS. All the procedures were done at room temperature. The plates can be stored at room temperature or at +4° C. for several months without any visible fading of the dye.

In series [12] the test system is A549 and H1975 cells. Kind of series: Measurement of intracellular calcium (Fluo-3). Format: cell-based. Particulars: A549 and H1975, after 6 h. As to the method:
Changes in intracellular free calcium were measured by a fluorescent dye, Fluo-3 as previously described. Briefly, A549 and H1975 cells were washed twice with culture media after Proscillaridin A treatment (6.25-25 nM) for 6 hours. Then cell suspensions were incubated with 5 μM Fluo-3 at 37° C. for 30 min. After the cells were washed twice with HBSS, the re-suspended cell samples were then subjected to FACS analysis. At least 10,000 events were analyzed.

Series [13] concerns PARP, Caspase-7, Caspase-9, AKT, BAX, Bcl-2. Kind of series: Western blot of apoptosis-related proteins. In kind it is cell-based. Particulars: A549, H1975, HCC827. Here is the method:
as §4, §5

For the next series, the system named is AMPK phosphorylation. Kind of series: Western blot. Particulars: FIG. 8A. Format: cell-based. As to the method: as §4, §5
Another series relates to JNK phosphorylation. Kind of series: Western blot. Format: cell-based. The conditions noted are these: FIG. 8A. As to the method: as §4, §5
A further series deals with NF-κB pathway. Kind of series: Western blot. Format: cell-based. The conditions noted are these: dose-dependent. Here is the method:
as §4, §5

Series [14] has as its system acetyl-CoA carboxylase (ACC) phosphorylation. Kind of series: Western blot. In kind it is cell-based. The conditions noted are these: FIG. 8A. As to the method: as §4, §5
Another series relates to mTOR phosphorylation. Nature of the series: Western blot. Format: cell-based. Particulars: FIG. 8A. Here is the method:
as §4, §5

In a further series the test system is DR4 expression. Kind of series: Regular and quantitative RT-PCR. In kind it is cell-based. Particulars: 12 h treatment. Here is the method: Cells were incubated with Proscillaridin A for 12 hours. Total RNA was then extracted from treated cells using a TRIzol reagent (Invitrogen, Carlsbad, Calif., USA) following the manufacturer's instructions and was used to prepare cDNA. Quantitative real-time PCR was performed with High-productivity Real-Time quantitative PCR ViiA™7 (Life Technologies).
The glyceraldehyde […] dehydrogenase (GAPDH) gene was used as the reference gene. All data were means of fold change of triplicate analysis and normalized with those of GAPDH.

In the case of `CC(=O)OCOC(=O)CN(CC(=O)OCOC(C)=O)c1ccccc1OCCOc1ccccc1N(CC(=O)OCOC(C)=O)CC(=O)OCOC(C)=O` [BAPTA/AM], in the series with A549 and H1975 cells [1] (Ca^2+ chelator co-treatment, flow cytometry), the “apoptotic cells after co-treatment with Proscillaridin A” value is “significant decrease of apoptotic cells”.
As to `c1cc(-c2cnn3cc(-c4ccc(OCCN5CCCCC5)cc4)cnc23)ccn1` [Compound C], the “apoptotic cells after co-treatment with Proscillaridin A” value with A549 and H1975 cells [1] (AMPK inhibitor co-treatment, A549 and H1975) is recorded as “partially weakened the apoptotic cells”.
By CC50 is commonly meant the concentration that lowers cell viability or growth by half. A higher CC50 goes with better tolerance by the cells. By IC50 is commonly meant the midpoint of a concentration-inhibition curve. High values mean weaker potency, low ones greater potency. Proscillaridin A: the CC50 in the series with A549 cells [2] is 14 ± 2.8 nM; in [3] (CCD19-LU normal fibroblast cell, 24 h), above 400 nM; in the series on H1975 cells [4], 15 ± 3.6 nM; in the series on H2228 cells, 23.6 ± 5.4 nM; with H358 cells, 25.8 ± 4.9 nM; with HCC78 cells it was 37.6 ± 9.9 nM. In the series with HCC827 cells [5], this compound yielded a CC50 of 13.9 ± 1.8 nM. In addition, in series [3] (CCD19-LU, 30-folds higher concentrations of the CC50 in EGFR-dependent NSCLC cells), the “inhibition of cell proliferation in normal lung fibroblast cells” value is reported as “no significant inhibitory effect”. On Na^+/K^+ ATPase, this compound gave an IC50 of 0.83 ± 0.3 nM. For the same compound, the apoptotic cells result with A549 cells [6] (A549, 50 nM, 24 h) is on record as “about 70%”; in the series with H1975 cells [7] (H1975, 50 nM, 24 h), “about 70%”. In addition, the “concentration at which significant induction of apoptosis starts” value in the series with A549 cells [6] (A549, 24 h) turned out to be 12.5 nM; in the series on H1975 cells [7] (H1975, 24 h), 25 nM. Also, in the series with HCC827 cells [8], the increase of apoptosis result was “about 10%”. Also, the “EGFR activation (phosphorylation of tyrosine residue 1173)” value in series [9] and in series [10] was “inhibited the EGFR activation” each time. The “clonogenic growth (colony formation)” value in [11] was “can suppress clonogenic growth”. The “cellular Ca^2+ level” value in the series on A549 and H1975 cells [12] was “remarkably increases the in vitro Ca^2+ level”. Moreover, the AKT activation entry in [13] is listed as “inhibited”. The BAX level entry in series [13] was “up-regulated”. Further, the Bcl-2 level entry in series [13] is reported as “down-regulated”. Further, in series [13], the “PARP, Caspase-7 and Caspase-9 cleavage” value is “cleaved and activated”. The “phosphorylation of AMPK” value in the series on AMPK phosphorylation is given as “significantly induced the phosphorylation of AMPK”. Moreover, the “phosphorylation of JNK” value in the series with JNK phosphorylation is given as “significantly activated the phosphorylation of JNK”. In addition, in the series on NF-κB pathway, the NF-κB pathway activation result is “significantly inhibited”. Moreover, the “phosphorylation of ACC” value in series [14] is given as “significantly induced the phosphorylation”. In addition, the “phosphorylation of mTOR” value in the series with mTOR phosphorylation was “inhibited the phosphorylation of mTOR”. Besides, the DR4 gene expression entry in the series with DR4 expression is “significantly elevated”.
